Experimental data published in patent publication US20240317710A1, “CRYSTALLINE CSF-1R INHIBITOR ACIDIC SALT, PREPARATION METHOD THEREFOR AND USE THEREOF” (Abbisko Therapeutics Co. Ltd., priority 2021, published 2024).
Structures can show the parent of a compound that is named as a salt.

Key:
[1] = Solubility determination in deionized water; format: physicochemical; conditions: for Solubility S: ultrasonication, stepwise addition of water; for Dissolution result: visual observation
Protocol: About 2 mg of each of the various crystalline acidic salts and the compound of formula (I) in free form was precisely weighed out into a 2 mL glass vial, and about 100 μL of deionized water was added each time; the mixture was ultrasonicated, and if the compound was not dissolved, the step of adding deionized water and performing ultrasonication was repeated until the compound was completely dissolved or the concentration was <0.2 mg/mL. The total volume of the water added was recorded, the dissolution behavior and result were observed, and the solubility of each compound was calculated.

[2] = Hygroscopic behavior test by dynamic vapor sorption (DVS); format: physicochemical; conditions: for Hygroscopic weight gain %: 25° C., DVS
Source text: The experimental method of characterizing the crystalline acidic salts of the compound of formula (I) using dynamic vapor sorption (DVS) is as follows: a small amount of crystalline acidic salt powder of the compound of formula (I) was placed in a precision sample pan that came with the instrument; after the sample was loaded, the aluminum pan was sent into the instrument for analysis. In the present patent, the instruments used for dynamic vapor sorption were all the DVS Intrinsic model, the experimental parameter was set to using nitrogen as a carrier gas, the constant temperature was set to 25° C., the rate of mass percentage change over a unit of time (dm/dt)=0.01%/min was used as a criterion for determining if an equilibrium is reached, and the program humidity change cycle was set as follows: the initial relative humidity was 0%, the relative humidity was 90% at the end of the cycle, 2 cycles were set, and each 10% R.H. change was a step.
The inventors of the present invention measured the hygroscopic weight gains of each of the various crystalline forms in various relative humidity conditions (hygroscopic weight gain/pre-hygroscopic weight[…]) according to the dynamic vapor sorption method, and assessed the hygroscopicity of the different crystalline compounds.

Cc1nc(NC(=O)N2CCC(C)(C)C2=O)ccc1Oc1ccnc(-c2cnn(C)c2)c1 [Citrate crystalline form I, 3,3-dimethyl-N-(6-methyl-5-((2-(1-methyl-1H-pyrazol-4-yl)pyridin-4-yl)oxy)pyridin-2-yl)-2-oxopyrrolidine-1-carboxamide]
Solubility S [1]: S > 20 mg/mL | Dissolution result [1]: Clear solution

Cc1nc(NC(=O)N2CCC(C)(C)C2=O)ccc1Oc1ccnc(-c2cnn(C)c2)c1 [Compound in free form, 3,3-dimethyl-N-(6-methyl-5-((2-(1-methyl-1H-pyrazol-4-yl)pyridin-4-yl)oxy)pyridin-2-yl)-2-oxopyrrolidine-1-carboxamide]
Solubility S [1]: S < 1.5 mg/mL | Dissolution result [1]: Not clear

Cc1nc(NC(=O)N2CCC(C)(C)C2=O)ccc1Oc1ccnc(-c2cnn(C)c2)c1 [Fumarate crystalline form I, 3,3-dimethyl-N-(6-methyl-5-((2-(1-methyl-1H-pyrazol-4-yl)pyridin-4-yl)oxy)pyridin-2-yl)-2-oxopyrrolidine-1-carboxamide]
Solubility S [1]: S > 20 mg/mL | Dissolution result [1]: Clear solution

Cc1nc(NC(=O)N2CCC(C)(C)C2=O)ccc1Oc1ccnc(-c2cnn(C)c2)c1 [Hydrochloride crystalline form I, 3,3-dimethyl-N-(6-methyl-5-((2-(1-methyl-1H-pyrazol-4-yl)pyridin-4-yl)oxy)pyridin-2-yl)-2-oxopyrrolidine-1-carboxamide]
Solubility S [1]: S > 20 mg/mL | Dissolution result [1]: Clear solution | hygroscopic weight gain [2]: less than 10% | Hygroscopic weight gain % ([2]; relative humidity 0.0 %): 0.00% | Hygroscopic weight gain % ([2]; relative humidity 10.0 %): 0.13% | Hygroscopic weight gain % ([2]; relative humidity 20.0 %): 0.24% | Hygroscopic weight gain % ([2]; relative humidity 30.0 %): 0.34% | Hygroscopic weight gain % ([2]; relative humidity 40.0 %): 0.42% | Hygroscopic weight gain % ([2]; relative humidity 50.0 %): 0.52% | Hygroscopic weight gain % ([2]; relative humidity 60.0 %): 0.63% | Hygroscopic weight gain % ([2]; relative humidity 70.0 %): 0.81% | Hygroscopic weight gain % ([2]; relative humidity 80.0 %): 1.37% | Hygroscopic weight gain % ([2]; relative humidity 90.0 %): 19.40%

Cc1nc(NC(=O)N2CCC(C)(C)C2=O)ccc1Oc1ccnc(-c2cnn(C)c2)c1 [Malate crystalline form I, 3,3-dimethyl-N-(6-methyl-5-((2-(1-methyl-1H-pyrazol-4-yl)pyridin-4-yl)oxy)pyridin-2-yl)-2-oxopyrrolidine-1-carboxamide]
Solubility S [1]: S > 20 mg/mL | Dissolution result [1]: Clear solution

Cc1nc(NC(=O)N2CCC(C)(C)C2=O)ccc1Oc1ccnc(-c2cnn(C)c2)c1 [Methanesulfonate crystalline form II, 3,3-dimethyl-N-(6-methyl-5-((2-(1-methyl-1H-pyrazol-4-yl)pyridin-4-yl)oxy)pyridin-2-yl)-2-oxopyrrolidine-1-carboxamide]
Solubility S [1]: S > 20 mg/mL | Dissolution result [1]: Clear solution | Hygroscopic weight gain % ([2]; relative humidity 0.0 %): 0.00% | Hygroscopic weight gain % ([2]; relative humidity 10.0 %): 0.11% | Hygroscopic weight gain % ([2]; relative humidity 20.0 %): 0.18% | Hygroscopic weight gain % ([2]; relative humidity 30.0 %): 0.20% | Hygroscopic weight gain % ([2]; relative humidity 40.0 %): 0.24% | Hygroscopic weight gain % ([2]; relative humidity 50.0 %): 0.31% | Hygroscopic weight gain % ([2]; relative humidity 60.0 %): 0.88% | Hygroscopic weight gain % ([2]; relative humidity 70.0 %): 8.93% | Hygroscopic weight gain % ([2]; relative humidity 80.0 %): 12.44% | Hygroscopic weight gain % ([2]; relative humidity 90.0 %): 23.15%

Cc1nc(NC(=O)N2CCC(C)(C)C2=O)ccc1Oc1ccnc(-c2cnn(C)c2)c1 [Phosphate crystalline form I, 3,3-dimethyl-N-(6-methyl-5-((2-(1-methyl-1H-pyrazol-4-yl)pyridin-4-yl)oxy)pyridin-2-yl)-2-oxopyrrolidine-1-carboxamide]
Solubility S [1]: S > 20 mg/mL | Dissolution result [1]: Clear solution | Hygroscopic weight gain % ([2]; relative humidity 0.0 %): 0.02% | Hygroscopic weight gain % ([2]; relative humidity 10.0 %): 1.19% | Hygroscopic weight gain % ([2]; relative humidity 20.0 %): 1.86% | Hygroscopic weight gain % ([2]; relative humidity 30.0 %): 2.32% | Hygroscopic weight gain % ([2]; relative humidity 40.0 %): 2.78% | Hygroscopic weight gain % ([2]; relative humidity 50.0 %): 3.37% | Hygroscopic weight gain % ([2]; relative humidity 60.0 %): 3.97% | Hygroscopic weight gain % ([2]; relative humidity 70.0 %): 4.66% | Hygroscopic weight gain % ([2]; relative humidity 80.0 %): 5.46% | Hygroscopic weight gain % ([2]; relative humidity 90.0 %): 6.383%

Cc1nc(NC(=O)N2CCC(C)(C)C2=O)ccc1Oc1ccnc(-c2cnn(C)c2)c1 [Sulfate crystalline form I, 3,3-dimethyl-N-(6-methyl-5-((2-(1-methyl-1H-pyrazol-4-yl)pyridin-4-yl)oxy)pyridin-2-yl)-2-oxopyrrolidine-1-carboxamide]
Solubility S [1]: S > 20 mg/mL | Dissolution result [1]: Clear solution

Cc1nc(NC(=O)N2CCC(C)(C)C2=O)ccc1Oc1ccnc(-c2cnn(C)c2)c1 [Tartrate crystalline form I, 3,3-dimethyl-N-(6-methyl-5-((2-(1-methyl-1H-pyrazol-4-yl)pyridin-4-yl)oxy)pyridin-2-yl)-2-oxopyrrolidine-1-carboxamide]
Solubility S [1]: S > 20 mg/mL | Dissolution result [1]: Clear solution | Hygroscopic weight gain % ([2]; relative humidity 0.0 %): 0.00% | Hygroscopic weight gain % ([2]; relative humidity 10.0 %): 0.83% | Hygroscopic weight gain % ([2]; relative humidity 20.0 %): 1.79% | Hygroscopic weight gain % ([2]; relative humidity 30.0 %): 2.42% | Hygroscopic weight gain % ([2]; relative humidity 40.0 %): 2.88% | Hygroscopic weight gain % ([2]; relative humidity 50.0 %): 3.32% | Hygroscopic weight gain % ([2]; relative humidity 60.0 %): 3.77% | Hygroscopic weight gain % ([2]; relative humidity 70.0 %): 4.44% | Hygroscopic weight gain % ([2]; relative humidity 80.0 %): 5.17% | Hygroscopic weight gain % ([2]; relative humidity 90.0 %): 10.61%
